From BindingDB's records for doi:10.1016/s1074-5521(99)80118-5 (Princeton University, 1999) come the findings set out here.

The assay addresses T1, Tyrosine-protein kinase ZAP-70 (Homo sapiens, UniProt P43403).
T1 sequence (P43403 whole entry): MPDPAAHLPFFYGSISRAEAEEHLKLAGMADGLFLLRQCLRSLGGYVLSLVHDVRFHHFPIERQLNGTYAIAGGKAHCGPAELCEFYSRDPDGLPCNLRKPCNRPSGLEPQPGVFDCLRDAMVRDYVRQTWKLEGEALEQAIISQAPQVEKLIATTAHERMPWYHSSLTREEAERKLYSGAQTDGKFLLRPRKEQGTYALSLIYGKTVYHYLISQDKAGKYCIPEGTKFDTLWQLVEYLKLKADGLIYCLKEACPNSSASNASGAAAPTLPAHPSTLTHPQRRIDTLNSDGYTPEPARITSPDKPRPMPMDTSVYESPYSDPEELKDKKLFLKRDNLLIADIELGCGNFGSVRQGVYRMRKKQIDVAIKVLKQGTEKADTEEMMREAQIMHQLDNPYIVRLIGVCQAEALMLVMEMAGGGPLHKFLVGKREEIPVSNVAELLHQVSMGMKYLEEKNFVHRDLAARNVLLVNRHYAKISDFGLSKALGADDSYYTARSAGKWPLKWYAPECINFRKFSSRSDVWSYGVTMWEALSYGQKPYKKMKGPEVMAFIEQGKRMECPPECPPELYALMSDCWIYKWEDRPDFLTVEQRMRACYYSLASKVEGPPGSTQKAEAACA
Briefly: Inhibition Assay. The source says:
Inhibition of protein tyrosine kinases

As a reminder, the IC50 is the concentration that inhibits the measured activity by half. The compound `Cc1ccc(-c2nn(C(C)(C)C)c3ncnc(N)c23)cc1` came in with an IC50 above 100 µM.
